Reference: patent US5561110A, “Method for the treatment of the complications and pathology of diabetes” (Peptide Technology Limited, priority 1994, dated 1996)
Entries after “also recorded” stand apart in the source; their conditions may differ.

Legend:
[1] = test system: Salmonella typhimurium TA 100; experiment: Ames test, plate incorporation, his- to his+ reversion
Description: Preparation of glycated compounds was performed according to Kim et al. (1991). In brief, D-glucose (1M) and each of the following: L-carnosine, L-lysine, L-alanine (all 1M) were dissolved in distilled water, the pH adjusted to 7 and the mixtures heated at 100° C. for 80 min. The solutions (50 μl and 250 μl ) were evaluated against strain TA 100 of Salmonells typhimurium using the plate incorporation method (Maron & Ames, 1983) with or without metabolic activation by a standard rat liver microsomal (S-9) preparation.
Salmonella tyrphimurium TA 100 indicator strain his^- to his^+ reversion system. Data represent the mean number of revertants per plate and their standard deviation for the test solutions and controls with and without metabolic stimulation by rat liver microsomal (S-9) preparation.

ovalbumin = experiment: Glycation of ovalbumin by DHA with anti-glycator, gel filtration on Superose 6; assay type: biochemical; settings: for effectiveness as anti-glycator, in words: ovalbumin + DHA, 60° C., 7 hours
Description: Gelfiltration Chromatography of Glycated Proteins HPLC Specifications:
COLUMN Superose 6, Pharmacia
SAMPLE: 100μ of Protein Sample (Approximately 100 μg)
Calibration was performed using Pharmacia high molecular weight (HMW) and low molecular weight (LMW) calibration kit.
To compare the effect of both carnosine and aminoguanidine on glycation bovine serum albumin (BSA) and ovalbumin was incubated with a constant amount of DHA and varying concentrations of either anti-glycator at 60° C. At the start of the reaction and after seven hours aliquots were taken and the progress of the reaction analysed by gel filtration on a Superose 6 column. Crosslinking or fragmentation of protein became clearly visible as a change in retention time compared to the untreated protein used as control. Some compounds eluted after theoretical retention time for the smallest compound. They tend to interfere with the column resin even at high ionic strength and presence of a detergent (Tween 20). They are not necessary small compounds but rather highly charged and reactive. […] In all aminoguanidine samples uncharacterised reaction products are formed predominantly at high concentrations (described as low molecular weight form "LMW" because the retention time is longer then observed for all other compounds). […] LMW were also observed when ovalbumin was replaced by bovine serum albumin in the incubation mixture (not shown). The LMW forms were never present in the camosine samples. A good measure for the effectiveness of an
Legend: ovalbumin was incubated with DHA for 7 hours in the presence of
various concentrations of either carnosine or aminoguanidine. Reaction
products were separated on a gelfiltration column (Superose 6) and peaks
grouped according to their retention times: HMW, high molecular weight
(15-30 min); albumin monomer (35 min); and late eluting compounds LMW, lo
molecular weight (>40 min). Carnosine and aminoguanidine concentration
[control] 0 mM, [A] 600 mM, [B] 300 mn, [C] 100 mM, [D] 50 mM.

diabetic models = settings: 30 weeks of feeding; cited from earlier work
[2] = test system: Male New Zealand white cross rabbits fed a high cholesterol (2%) diet; experiment: Atherosclerotic plaque formation in aorta of cholesterol-fed rabbits; assay type: in vivo, rabbit; settings: 8 weeks
Description: (§1) Male New Zealand white cross rabbits fed a high cholesterol (2%) diet were randomised to control or carnosine treatment 2% and plasma was assayed for cholesterol and triglycerides and carnosine. All animals received 100 g of food pellets/day and free access to water.
(§2) At the end of the 8 week treatment period, the rabbits were anaesthetised with pentobarbitone (325 mg/kg) and the total aorta removed. The arch, thoracic and abdominal regions were isolated by cutting the aorta circumferentially 1.0 cm proximal to the first pair of intercostal arteries and 0.3 cm above the coeliac artery. The adventitia was carefully dissected away, and the artery longitudinally cut to expose the intimal surface. The aorta was fixed in 10% buffered formalin for 48 hours. The lipid plaques in these vessels were then stained using Sudan IV and mounted with an aqueous mounting medium (Kaiser's Glycerol Jelly). The lesioned areas were directly traced from the mounted sections using an image analyser (Eye Com 850 image processor). Computer-aided planimetry was used to macroscopically determine the percentage of the affected area. Representative segments of atherosclerotic plaque were removed for confirmation by light microscopy. Results are expressed as mean ±SEM.
Coronary heart disease is one of the most common causes of deaths in diabetics and non-diabetics alike. […]

[3] = Body weight and organ weights of cholesterol-fed rabbits; assay type: in vivo, rabbit
Description: as §1, §2

[4] = test system: streptozotocin induced diabetic rat; experiment: Formation of cataracts in streptozotocin induced diabetic rats; assay type: in vivo; settings: after 8 week on carnosine diet (56 days), 2% in drinking water
Description: (§3) Male Sprague-Dawley rats weighing 200-250 g and 6 weeks of age were randomised to the following three treatment groups: control, diabetic, and carnosine-treated diabetic rats. Diabetes was induced with streptozotozen STZ(60 mg/kg body weight in citrate buffer, pH 4.5, i.v.), and all animals with plasma glucose levels >20 mM after 1 week were included in the study. Diabetic rats were randomised to receive either no therapy or 2% carnosine in drinking water.
Cataract is an opacification of the ocular lens sufficient to impair vision. Diabetes has been associated with cataract for many years and many laboratory experiments support the view that diabetes is the cause of one form of cataract. Diabetes in animals can be induced by streptozotozin and opacity of the lens starts to develop by 20 days after injection but dense opacities appear only after about 100 days depending on age at injection.
In cataract adducts of sugars to proteins including lens proteins have been identified and quantified. In most tissues there is little accumulation of late Maillard products even in diabetes but proteins in the lens nucleus have time not only to accumulate early glycation products but also for them to change into yellow Maillard products. […] Since this was measured at 56 days, the half way mark of the experiment, the trend indicates a reduction in cataract formation by carnosine feeding.

[5] = test system: streptozotocin induced diabetic rat; experiment: Albuminuria, glycated haemoglobin and blood glucose in diabetic rats; assay type: in vivo; settings: week 8
Description: as §3

bovine serum albumin = experiment: Dihydroxyacetone-induced modification (non-enzymic glycosylation, gel formation) of bovine serum albumin; assay type: biochemical; settings: BSA 50 mg/ml, 250 mM dihydroxyacetone, 250 mM L-carnosine, 23° C., 4 weeks
Description: Physiological concentrations of bovine serum albumin (50 mg/ml in 50 mM Na-phosphate buffer pH 7.0) were incubated with or without 250 mM dihydroxyacetone in the presence and absence of 250 mM L-carnosine at 23° C. for 4 weeks. The experiment was performed under sterile conditions and the ionic strength was the same in all vials.

mammals = settings: cited from earlier work

CC(=O)Nc1ccc2c(c1)Cc1ccccc1-2 [2AAF, reference compound]
Revertants per Plate with TA 100, With S-9 ([1]; positive control, dose not given): 500

N=C(N)NN [Aminoguanidine, aminoguanidine, reference compound]
Percent Area of Chromatogram, HMW (ovalbumin; after 7 hours, [A] 600 mM): 0% | Percent Area of Chromatogram, LMW (ovalbumin; after 7 hours, [A] 600 mM): 69% | Percent Area of Chromatogram, Monomer (ovalbumin; after 7 hours, [A] 600 mM): 31% | Percent Area of Chromatogram, HMW (ovalbumin; after 7 hours, [B] 300 mn): 8% | Percent Area of Chromatogram, LMW (ovalbumin; after 7 hours, [B] 300 mn): 72% | Percent Area of Chromatogram, Monomer (ovalbumin; after 7 hours, [B] 300 mn): 20% | Percent Area of Chromatogram, HMW (ovalbumin; after 7 hours, [C] 100 mM): 0% | Percent Area of Chromatogram, LMW (ovalbumin; after 7 hours, [C] 100 mM): 49% | Percent Area of Chromatogram, Monomer (ovalbumin; after 7 hours, [C] 100 mM): 41% | Percent Area of Chromatogram, HMW (ovalbumin; after 7 hours, [D] 50 mM): 38% | Percent Area of Chromatogram, LMW (ovalbumin; after 7 hours, [D] 50 mM): 22% | Percent Area of Chromatogram, Monomer (ovalbumin; after 7 hours, [D] 50 mM): 40% | Percent Area of Chromatogram, HMW (ovalbumin; t0 hours, [A] to [D] 600-50 mM): 0% | Percent Area of Chromatogram, LMW (ovalbumin; t0 hours, [A] to [D] 600-50 mM): 0% | Percent Area of Chromatogram, Monomer (ovalbumin; t0 hours, [A] to [D] 600-50 mM): 100% | amount of glycated haemoglobin (diabetic models): does not reduce

NCCC(=O)N[C@@H](Cc1cnc[nH]1)C(=O)O [carnosine, β-alanyl-L-histidine]
Percent Area of Chromatogram, HMW (ovalbumin; after 7 hours, [A] 600 mM): 9% | Percent Area of Chromatogram, LMW (ovalbumin; after 7 hours, [A] 600 mM): 0% | Percent Area of Chromatogram, Monomer (ovalbumin; after 7 hours, [A] 600 mM): 91% | Percent Area of Chromatogram, HMW (ovalbumin; after 7 hours, [B] 300 mn): 6% | Percent Area of Chromatogram, LMW (ovalbumin; after 7 hours, [B] 300 mn): 0% | Percent Area of Chromatogram, Monomer (ovalbumin; after 7 hours, [B] 300 mn): 94% | Percent Area of Chromatogram, HMW (ovalbumin; after 7 hours, [C] 100 mM): 3% | Percent Area of Chromatogram, LMW (ovalbumin; after 7 hours, [C] 100 mM): 0% | Percent Area of Chromatogram, Monomer (ovalbumin; after 7 hours, [C] 100 mM): 97% | Percent Area of Chromatogram, HMW (ovalbumin; after 7 hours, [D] 50 mM): 25% | Percent Area of Chromatogram, LMW (ovalbumin; after 7 hours, [D] 50 mM): 0% | Percent Area of Chromatogram, Monomer (ovalbumin; after 7 hours, [D] 50 mM): 75% | effectiveness as anti-glycator, in words (ovalbumin): more effective at all concentrations compared to aminoguanidine | effectiveness as anti-glycator, in words (ovalbumin; listed as Carnosine): reduced formation of high molecular weight compounds and was slightly more effective at low concentration compared to aminoguanidine | Percent Area of Chromatogram, HMW (ovalbumin; t0 hours, [A] to [D] 600-50 mM): 0% | Percent Area of Chromatogram, LMW (ovalbumin; t0 hours, [A] to [D] 600-50 mM): 0% | Percent Area of Chromatogram, Monomer (ovalbumin; t0 hours, [A] to [D] 600-50 mM): 100% | atherosclerotic plaque formation, in words [2]: can reduce but not prevent plaque formation | body weight versus control, in words ([3]; 8 week treatment period): no difference | weight of various organs versus control, in words ([3]; 8 weeks): No difference | Body Weight ([3]; Week 0): 3.33 ± 0.09 kg | Body Weight ([3]; Week 8): 2.68 ± 0.12 kg | Weight of organs, Heart ([3]; after 8 weeks treatment): 6.12 ± 0.27 g | Weight of organs, Kidney ([3]; after 8 weeks treatment): 17.53 ± 0.69 g | Weight of organs, Liver ([3]; after 8 weeks treatment): 124.40 ± 6.36 g | lens clarity compared to diabetic control group [4]: higher clarity (less opacity) | Blood Glucose (mean + SEM) [5]: 22.63 ± 3.00 mM | Percent Glycated Haemoglobin (HbAlc) [5]: 4.49 ± 0.14% | Resultant effects (appearance of albumin incubation) (bovine serum albumin): dark brown, fluid; also recorded: remained fluid | toxicity, in words (mammals; in vivo): virtually non-toxic | level that can be administered (mammals; mammals): 5-10 g/kg body weight | Revertants per Plate with TA 100, With S-9 ([1]; Dose 50 μl): 179 ± 15 | Revertants per Plate with TA 100, Without S-9 ([1]; Dose 50 μl): 154 ± 14 | Revertants per Plate with TA 100, With S-9 ([1]; Dose 250 μl): 149 ± 13 | Revertants per Plate with TA 100, Without S-9 ([1]; Dose 250 μl): 158 ± 11 | mutagenicity ([1]; TA 100, with or without S-9): not mutagenic
